Assay: xn = mol fraction of the nth substance listed
Settings: 100 kPa, Liquid; for speed of sound: Frequency=3 MHz, Sing-around technique in a fixed-path interferometer; for mass density: Vibrating tube method

Nc1ccccc1 [aniline] + CCOC(=O)OCC
Settings	mass density, 298.15 K [kg/m3]	mass density, 303.15 K [kg/m3]	mass density, 308.15 K [kg/m3]	mass density, 313.15 K [kg/m3]	speed of sound, 298.15 K [m/s]	speed of sound, 303.15 K [m/s]	speed of sound, 308.15 K [m/s]	speed of sound, 313.15 K [m/s]	speed of sound, 318.15 K [m/s]
x2 = 0	1017.1	1012.7	1008.4	1004.1	1636.8	1617.5	1598.3	1579.1	1560
x2 = 0.073	1014.2	1009.8	1005.4	1001	1594.4	1575.1	1555.8	1536.6	1517.6
x2 = 0.1652	1010.2	1005.7	1001.2	996.6	1543.3	1523.9	1504.6	1485.3	1466
x2 = 0.2537	1006.4	1001.8	997.1	992.5	1497.7	1478.3	1458.5	1439.1	1419.8
x2 = 0.3387	1002.6	997.9	993.2	988.5	1455.9	1436.4	1416.8	1397.4	1378
x2 = 0.4432	998	993.2	988.3	983.5	1407.9	1388.2	1368.5	1349	1329.5
x2 = 0.5468	993	988.1	983.1	978.1	1361.3	1341.5	1321.7	1302	1282.5
x2 = 0.6546	987.7	982.6	977.5	972.4	1316	1296	1276	1256.3	1236.6
x2 = 0.7559	982.5	977.3	972	966.8	1274.2	1254.1	1234.1	1214.2	1194.5
x2 = 0.884	975.9	970.5	965.1	959.8	1222.6	1202.3	1182.1	1162.1	1142.2
